Data from US20130289089A1, “Pharmaceutical Compositions for Topical Delivery of Photosensitizers and Uses Thereof” (priority 2011, published 2013).

Experiments:
Assay type in all cases: physicochemical
[1] = Solubility of lemuteporfin in various solvents (HPLC analysis)
From the text: The solubility of lemuteporfin in various solvent compositions is shown in the last column of Table 2. All values were obtained analytically by HPLC analysis.
Solubility results for lemuteporfin indicated maximum solubility in solvent-based formulations containing primarily benzyl alcohol. […] The addition of other solvents reduced solubility by approximately the amount of the new solvent introduced. Diethylene glycol monoethyl ether (DGME) is about 20% as efficient at dissolving lemuteporfin as benzyl alcohol.

[2] = Solubility of lemuteporfin in the LTS formulation (stirred, sampled, filtered)
Method: LTS was prepared by adding lemuteporfin to the other components in Table 4 (already pre-mixed) at room temperature. The solution was stirred and samples were removed at various time points, and filtered to determine the amount of undissolved lemuteporfin. The amount of lemuteporfin that dissolved was approximately 0.048%.
Studies were conducted to determine the effect of certain of the LTS excipients on the solubility of lemuteporfin.

[3] = Stability of supersaturated/reconstituted lemuteporfin solutions up to 4 hours (filtered, HPLC); conditions: up to 4 hours post-reconstitution
Method: Samples of the compositions are taken at various time points after combining the photosensitizing component and the excipient component. Half of the samples are filtered to remove any precipitates, for example through a 0.22 μm filter. The filtered solutions are analyzed, for example, using HPLC, for the content or concentration of photosensitizer. If the solution is stable, and no photosensitizer has precipitated out, then the concentration of photosensitizer in the filtered solution should be roughly the same as the concentration of photosensitizer in the unfiltered solution, within experimental error.
Three formulations (Batches C (Table 8), D (Table 9) and H (Table 10)) in which the Vial 1 photosensitizer component consisted of benzyl alcohol and lemuteporfin at three lemuteporfin concentrations, 0.1, 0.075 and 0.05% w/w in the final combined LTS solution were examined for stability after reconstitution with the remaining excipients in Vial 2.
Vial 2 contents were added to vial 1 for each formulation, mixed and sampled at time 0 and 4 hours after reconstitution. The samples were filtered through a 0.22 μm filter before analysis by HPLC. This analysis was performed to ensure that the combined product had adequate stability and would not precipitate before administration to a subject. […]

lemuteporfin
Efficiency of DGME at dissolving lemuteporfin relative to benzyl alcohol ([1]; DGME versus benzyl alcohol): about 20%
Solubility, % w/w Lemuteporfin ([1]; solvent % w/w: DGME 45, benzyl alcohol 45, oleyl alcohol 5, oleic acid 5): 1.373 % w/w
Solubility, % w/w Lemuteporfin ([1]; solvent % w/w: DGME 50, benzyl alcohol 15, oleic acid 35): 0.230 % w/w
Solubility, % w/w Lemuteporfin ([1]; solvent % w/w: DGME 50, benzyl alcohol 15, oleyl alcohol 35): 0.200 % w/w
Solubility, % w/w Lemuteporfin ([1]; solvent % w/w: DGME 50, benzyl alcohol 50): 1.57 % w/w
Solubility, % w/w Lemuteporfin ([1]; solvent % w/w: DGME 52, benzyl alcohol 16, oleyl alcohol 16, oleic acid 16): 0.210 % w/w
Solubility, % w/w Lemuteporfin ([1]; solvent % w/w: DGME 65, oleyl alcohol 17.5, oleic acid 17.5): 0.271 % w/w
Solubility, % w/w Lemuteporfin ([1]; solvent % w/w: DGME 65, oleyl alcohol 35): 0.430 % w/w
Solubility, % w/w Lemuteporfin ([1]; solvent % w/w: DGME 90, isopropyl myristate 10): 0.430 % w/w
Solubility, % w/w Lemuteporfin ([1]; solvent % w/w: DGME 90, oleyl alcohol 5, oleic acid 5): 0.420 % w/w
Solubility, % w/w Lemuteporfin ([1]; solvent % w/w: DGME 90, oleyl alcohol 10): 0.420 % w/w
Solubility, % w/w Lemuteporfin ([1]; solvent % w/w: benzyl alcohol 30, ethanol (190) 70): 0.455 % w/w
Solubility, % w/w Lemuteporfin ([1]; solvent % w/w: benzyl alcohol 30, oleyl alcohol 70): 0.166 % w/w
Solubility, % w/w Lemuteporfin ([1]; solvent % w/w: benzyl alcohol 40, isopropyl myristate 60): 0.090 % w/w
Solubility, % w/w Lemuteporfin ([1]; solvent % w/w: benzyl alcohol 50, ethanol (190) 50): 0.453 % w/w
Solubility, % w/w Lemuteporfin ([1]; solvent % w/w: benzyl alcohol 50, oleic acid 50): 0.409 % w/w
Solubility, % w/w Lemuteporfin ([1]; solvent % w/w: benzyl alcohol 50, oleyl alcohol 50): 0.228 % w/w
Solubility, % w/w Lemuteporfin ([1]; solvent % w/w: benzyl alcohol 50, propylene glycol 50): 0.494 % w/w
Solubility, % w/w Lemuteporfin ([1]; solvent % w/w: benzyl alcohol 90, isopropyl myristate 10): 2.30 % w/w
Solubility, % w/w Lemuteporfin ([1]; solvent % w/w: benzyl alcohol 90, oleic acid 10): 2.33 % w/w
Solubility, % w/w Lemuteporfin ([1]; solvent % w/w: benzyl alcohol 90, oleyl alcohol 5, oleic acid 5): 2.22 % w/w
Solubility, % w/w Lemuteporfin ([1]; solvent % w/w: benzyl alcohol 90, oleyl alcohol 10): 2.24 % w/w
Solubility, % w/w Lemuteporfin ([1]; solvent: benzyl alcohol 100 % w/w): 2.55 % w/w
Solubility of lemuteporfin in the LTS solution system ([2]; isopropyl alcohol removed (data not shown)): ~0.07 % w/w
Amount of lemuteporfin that dissolved in the Table 4 components ([2]; room temperature): approximately 0.048%
Lemuteporfin content (% w/w), dissolved in formulation of Table 4 ([2]; room temperature, time point 0.17 hours): 0.0241 % w/w
Lemuteporfin content (% w/w), dissolved in formulation of Table 4 ([2]; room temperature, time point 2.47 hours): 0.0482 % w/w
Lemuteporfin content (% w/w), dissolved in formulation of Table 4 ([2]; room temperature, time point 4.37 hours): 0.0453 % w/w
Lemuteporfin content (% w/w), dissolved in formulation of Table 4 ([2]; room temperature, time point 6.37 hours): 0.0463 % w/w
Lemuteporfin content (% w/w), dissolved in formulation of Table 4 ([2]; room temperature, time point 23.5 hours): 0.0370 % w/w
Solubility of lemuteporfin in the LTS solution system ([2]; with isopropyl alcohol (data not shown)): approximately 0.03 % w/w
Solubility of lemuteporfin in the LTS solution system ([2]; with polysorbate 80 (data not shown)): 0.037 % w/w
Solubility of lemuteporfin in the LTS solution system ([2]; without polysorbate 80 (data not shown)): 0.027 % w/w
Precipitation after reconstitution [3]: has not precipitated out of solution
